Values of other authors in US20230018472A1, “RHINENCHYSIS COMPOSITION CONTAINING OLOPATADINE” (TOKO YAKUHIN KOGYO CO., LTD., priority 2019, published 2023).
Like-named read-outs stand apart in the source and are kept apart here.

SMILES: CN(C)CC/C=C1/c2ccccc2COc2ccc(CC(=O)O)cc21 [olopatadine]
- Solubility of olopatadine (around neutral pH): very low
- Solubility of olopatadine (concentration 0.2% or more as free base, solution having pH of 5 or higher): not soluble
